Source: US20230348564A1, “ANTI-CANCER PROTEINS” (UNICHEM LABORATORIES LTD, priority 2020, published 2023)

Columns and labels:
[1] = test system: MIA PaCa-2 (Human pancreatic carcinoma); assay: MTT cytotoxicity assay; conditions: SEQ ID NO. 2 80 μg/ml, doxorubicin 75 μM; 48h
Procedure: (§1) All the cancer cell lines were procured from National Centre for Cell Science, Pune (India). Cell lines were maintained under conditions as mentioned in Table 23. The cell lines were sub-cultured by trypsinization followed by splitting the cell suspension into fresh flasks and supplementing with fresh culture medium.
(§2) All the cell lines were grown in specified media at 37° C. with 95% Humidity and 5% CO2.
(§3) The cells were trypsinized, counted by Trypan blue method in Neuebauer's Chamber and plated in wells of flat bottom 96-well plate at the density corresponding to 10×10^3 cells/well/200 μL medium.
(§4) Following overnight incubation, the media in the plate was replenished with 180 μL/well and then the cells were treated with 20 μL of each test item at concentrations ranging from 2.5 μg/mL-80 μg/mL in triplicates, so that the total volume in each well is 200 μL.
(§5) The untreated cells served as negative control. The cells were incubated with the test items or positive control for a time period of 48h. Following incubation, the cell cytotoxicity was estimated using MTT assay. Absorbance was measured at 540 nm. The percentage cytotoxicity corresponding to each treatment was calculated using the formula:
(§6) % Cytotoxicity=(1−X/R)*100
(§7) Where X=absorbance of wells corresponding to treated cells R=absorbance of untreated cells (cells maintained in growth medium only)
(§8) IC50 value was calculated using Graph-Pad Prism version 4.01 software.

[2] = test system: PBMCs (Peripheral blood mononuclear cells); assay: MTT cytotoxicity assay; conditions: SEQ ID NO. 2 80 μg/ml, doxorubicin 75 μM; 48h
Procedure: as §1, §2, §3, §4, §5, §6, §7, §8

[3] = test system: MDA-MB-453 (Human breast metastatic carcinoma); assay: MTT cytotoxicity assay; conditions: SEQ ID NO. 2 80 μg/ml, doxorubicin 75 μM; 48h
Procedure: as §1, §2, §3, §4, §5, §6, §7, §8

[4] = test system: MCF-7 (Human breast adenocarcinoma); assay: MTT cytotoxicity assay; conditions: SEQ ID NO. 2 80 μg/ml, doxorubicin 75 μM; 48h
Procedure: as §1, §2, §3, §4, §5, §6, §7, §8

[5] = test system: T24 (Human Bladder Cancer); assay: MTT cytotoxicity assay; conditions: SEQ ID NO. 2 80 μg/ml, doxorubicin 75 μM; 48h
Procedure: as §1, §2, §3, §4, §5, §6, §7, §8

[6] = test system: T-47D (Human mammary gland ductal carcinoma); assay: MTT cytotoxicity assay; conditions: SEQ ID NO. 2 80 μg/ml, doxorubicin 75 μM; 48h
Procedure: as §1, §2, §3, §4, §5, §6, §7, §8

[7] = test system: MDA-MB-231 (Human breast adenocarcinoma); assay: MTT cytotoxicity assay; conditions: SEQ ID NO. 2 80 μg/ml, doxorubicin 75 μM; 48h
Procedure: as §1, §2, §3, §4, §5, §6, §7, §8

[8] = test system: PANC-1 (Human pancreatic epitheloid carcinoma); assay: MTT cytotoxicity assay; conditions: SEQ ID NO. 2 80 μg/ml, doxorubicin 75 μM; 48h
Procedure: as §1, §2, §3, §4, §5, §6, §7, §8

[9] = test system: PANC-1; assay: JC-1 assay, mitochondrial membrane depolarization; type: cell-based, Human; conditions: 16h
Procedure: (§9) To evaluate the in vitro apoptotic effect of recombinant lectin having the amino acid sequence of SEQ ID NO.2 in MDA-MB-231 (breast cancer) and PANG-1 (pancreatic cancer) cell line by JC-1 assay, an increase in mitochondrial membrane depolarization was used as a marker of apoptosis. […] 2 using JC-1 dye based method. […] The cell lines were grown in Dulbecco's Modified Eagle Medium (DMEM)+10% heat inactivated FBS at 37° C. (95% humidity and 5% CO2). […] Recombinant lectin having the amino acid sequence of SEQ ID NO. 2 was diluted in serum free medium. Doxorubicin was used as positive control and stock solution was prepared in dimethyl sulfoxide (DMSO). […] The cells were then incubated overnight under growth conditions to allow the cell recovery and exponential growth. Cells were treated with the recombinant lectin of SEQ ID NO. […] Following respective treatments the cells in the above plate were incubated for 16h in CO2 incubator at 37° C., 5% CO2 and 95% humidity.
(§10) After 16h of incubation, the supernatants were discarded and 100 μL of JC1-dye solution (prepared by diluting 1 mM DMSO stock in to 10 μM in 1×PBS) was added to each well. The cells were then incubated with the dye in CO2 incubator at 37° C. for 15 min. After 15 min of incubation, the supernatant was removed and the cells were washed twice with 1×PBS and then 100 μL of 1×PBS was added to each well. Red fluorescence (excitation 550 nm, emission 600 nm) and green fluorescence (excitation 485 nm, emission 535 nm) were measured using Biotek Synergy FIT plate reader. The mitochondrial membrane potential […] was calculated as the ratio of intensity of red fluorescence to intensity of green fluorescence described as follows:
(§11) ΔΨM=Intensity of red fluorescence/Intensity of green fluorescence
(§12) The percentage decrease of Red fluorescence/Green fluorescence corresponding to each treatment was calculated using the following formula:
(§13) Where X=Δψm corresponding to treated cells R=ΔΨM corresponding to control wells.

[10] = test system: MDA-MB-231; assay: JC-1 assay, mitochondrial membrane depolarization; type: cell-based, Human; conditions: 16h
Procedure: as §9, §10, §11, §12, §13

[11] = test system: VEGF release in PANC-1 cells; assay: VEGF secretion in cancer cells (Human VEGF ELISA); type: cell-based; conditions: 24 h
Procedure: (§14) The cell lines were maintained in DMEM+10% […] (heat inactivated) at 37° C. with 5% CO2, and 95% humidity. Cells were counted and plated in 6-well plates for 24 h at a density of 0.5×10^6 cells/well. The cells were incubated overnight under growth conditions as described above so as to allow cell recovery and exponential growth. Cells were treated with each test item at different concentrations for 24h in serum free media. Doxorubicin was used as positive control. Secreted levels of VEGF were determined in supernatants after 24 hours using Human VEGF ELISA kit (R&D systems) as per manufacturer's protocol. Change in VEGF levels corresponding to each treatment was calculated using the following formula: […]

[12] = test system: VEGF release in MDA-MB-231 cells; assay: VEGF secretion in cancer cells (Human VEGF ELISA); type: cell-based; conditions: 24 h
Procedure: as §14

COc1cccc2c1C(=O)c1c(O)c3c(c(O)c1C2=O)C[C@@](O)(C(=O)CO)C[C@@H]3O[C@H]1C[C@H](N)[C@H](O)[C@H](C)O1 [Doxorubicin, reference compound]
Cytotoxicity at highest concentration tested [1]: 63.9%
Cytotoxicity at highest concentration tested [2]: 32.0%
Cytotoxicity at highest concentration tested [3]: 71.4%
Cytotoxicity at highest concentration tested [4]: 64.9%
Cytotoxicity at highest concentration tested [5]: 54.4%
Cytotoxicity at highest concentration tested [6]: 51.1%
Cytotoxicity at highest concentration tested [7]: 50.2%
Cytotoxicity at highest concentration tested [8]: 65.1%
Average Green fluorescence ([9]; 0.1 μM): 258.5
Average Red fluorescence ([9]; 0.1 μM): 653.7
Percentage decrease in MMP (%) ([9]; 0.1 μM): −21.0%
Average Green fluorescence ([9]; 1 μM): 282.3
Average Red fluorescence ([9]; 1 μM): 555.3
Percentage decrease in MMP (%) ([9]; 1 μM): 5.9%
Average Green fluorescence ([9]; 10 μM): 208.3
Average Red fluorescence ([9]; 10 μM): 350.0
Percentage decrease in MMP (%) ([9]; 10 μM): 19.6%
Average Green fluorescence ([9]; 25 μM): 186.3
Average Red fluorescence ([9]; 25 μM): 283.0
Percentage decrease in MMP (%) ([9]; 25 μM): 27.3%
Average Green fluorescence ([9]; 50 μM): 161.7
Average Red fluorescence ([9]; 50 μM): 192.5
Percentage decrease in MMP (%) ([9]; 50 μM): 43.0%
Average Green fluorescence ([10]; 0.1 μM): 473.0
Average Red fluorescence ([10]; 0.1 μM): 465.3
Percentage decrease in MMP (%) ([10]; 0.1 μM): 58.8%
Average Green fluorescence ([10]; 1 μM): 345.5
Average Red fluorescence ([10]; 1 μM): 343.3
Percentage decrease in MMP (%) ([10]; 1 μM): 58.3%
Average Green fluorescence ([10]; 10 μM): 534.0
Average Red fluorescence ([10]; 10 μM): 580.7
Percentage decrease in MMP (%) ([10]; 10 μM): 54.4%
Average Green fluorescence ([10]; 25 μM): 336.3
Average Red fluorescence ([10]; 25 μM): 376.7
Percentage decrease in MMP (%) ([10]; 25 μM): 53.0%
Average Green fluorescence ([10]; 50 μM): 318.0
Average Red fluorescence ([10]; 50 μM): 663.7
Percentage decrease in MMP (%) ([10]; 50 μM): 12.5%
Average absorbance at 450 nM ([11]; 10 μM): 0.506
Percentage decrease in VEGF levels ([11]; 10 μM): 73.6%
VEGF level ([11]; 10 μM): 269.7 pg/mL
Average absorbance at 450 nM ([11]; 100 μM): 0.483
Percentage decrease in VEGF levels ([11]; 100 μM): 75.1%
VEGF level ([11]; 100 μM): 254.6 pg/mL
Average absorbance at 450 nM ([12]; 10 μM): 0.176
Percentage decrease in VEGF levels ([12]; 10 μM): 89.2%
VEGF level ([12]; 10 μM): 49.9 pg/mL
Average absorbance at 450 nM ([12]; 100 μM): 0.145
Percentage decrease in VEGF levels ([12]; 100 μM): 93.7%
VEGF level ([12]; 100 μM): 29.0 pg/mL
